Experiment: gradient 5% acetonitrile 3 min, to 50% in 2 min, to 85% in 15 min, held 3 min, 100 µL/min
Conditions: column: Zorbax Extend-C18 2.1 x 50 mm; eluents: water / acetonitrile, 0.1% formic acid
Method in brief: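 Retention times of pure standards were taken from adduct peaks that were selected by computer and manually inspected. Over 3 months, mixtures of ~100 molecules were run by HPLC–quadrupole time-of-flight mass spectrometry in positive and negative ionization mode. The Zorbax Extend-C18 column (2.1 × 50 mm, 1.8 μm) ran at 100 μL/min in water and acetonitrile, each containing 0.1% formic acid, with 40 μL dead volume and 900 μL dwell volume.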

RP-LC retention time [s]	SMILES
928	CCOc1ccc(NC(=O)CSc2nccc(N3CCN(c4cc(C)ccc4C)CC3)n2)cc1
854	COc1ccc(OC)c(S(=O)(=O)N2CCCC(C(=O)NCc3ccccc3OC)C2)c1 (centres undefined)
940	O=C(CN1C(=O)CN(C(=O)Nc2ccccc2)c2ccccc21)N1CCCc2ccccc21
790	COc1ccc2[nH]cc(CCNC(=O)Cc3ccc(F)cc3)c2c1
667	CCOc1ccccc1NC(=O)Cn1cnc2nc(N3CCCC(C(=O)NC)C3)sc2c1=O (centres undefined)
1080	CC(C)n1c(=O)c2ccccc2n(Cc2nc(-c3ccc4c(c3)OCO4)no2)c1=O
907	CC1CCN(C(=O)C2=CN(c3ccc(F)cc3)c3ccccc3S2(=O)=O)CC1
666	CNC(=O)CCc1nc2ccccc2n(CC(=O)NCc2ccc(F)cc2)c1=O
684	O=C(c1ccco1)N1CCCN(c2ccc(=O)n(-c3ccccc3)n2)CC1
591	CC(C)CCNC(=O)C1CCN(C(=O)c2cc(-c3ccncc3)n[nH]2)CC1
556	Cc1nnc2cc(N3CCN(Cc4cn[nH]c4-c4ccccc4)CC3)cnn12
659	N#Cc1cccc(C(=O)Nc2ccc3cn[nH]c3c2)c1
765	CNc1cccnc1OC1CCN(S(=O)(=O)c2ccc3c(c2)CCC3)C1 (centres undefined)
651	O=S(=O)(c1ccc(Cl)cc1)c1ccc(N2CCN(c3ccccn3)CC2)nn1
1200	Cc1ccc(-n2ncc3c(=O)n(Cc4nc(-c5ccc(Br)cc5)no4)cnc32)cc1
888	O=c1c2nc(-c3ccc(F)cc3)cn2ccn1-c1ccc(F)c(Cl)c1
1070	CCOc1ccc(-c2noc(Cn3cnc4c(cnn4-c4ccc(CC)cc4)c3=O)n2)cc1OC
690	CCCNC(=O)c1cc(-c2ccncc2)cn1Cc1ccccc1C
1020	COc1ccc(-c2cc(C(=O)Nc3ccc(Cl)cc3)nn2C2CCS(=O)(=O)C2)cc1 (centres undefined)
852	O=C(Cn1cc(-c2ccccc2)c2ncn(C3CC3)c(=O)c21)NCc1ccc2c(c1)OCO2
843	CC(=O)NNC(=O)N1Cc2ccccc2Oc2ccc(Cl)cc21
678	Cn1nc(-c2cccc(NC(=O)c3cccs3)c2)ccc1=O

RP-LC retention time [s]	SMILES
661	CC(=O)c1ccc(C)cc1OC(=O)c1cccc2nc(C)oc12
628	Cn1nc(-c2nc(C3CC3)no2)c2c1CCN(C(=O)c1ccncc1)C2
602	c1ccc(-c2nc(-c3ccc4c(c3)nnn4CCN3CCCCC3)no2)nc1
911	Cc1ccc2[nH]cc(CCN3CC(C(=O)Nc4cccc(Br)c4)CC3=O)c2c1 (centres undefined)
829	CCc1noc2nc(C)n(CC(=O)NCc3ccc(C)cc3)c(=O)c12
735	CCOc1ccc(NC(=O)Cn2c(-c3cnccn3)nc(C)c(C)c2=O)cc1
1140	O=C(Cn1cccc1-c1nc(-c2ccc(F)cc2)no1)N1CCc2ccccc21
1010	Cn1cc(C(=O)NCc2cc(F)cc(F)c2)c(S(=O)(=O)N2CCSCC2)n1
752	COc1ccc(Cl)cc1N1CC(c2nc(-c3ccncc3)no2)CC1=O (centres undefined)
1190	Cc1nn(-c2ccc(-c3ccccc3)nn2)c(C)c1S(=O)(=O)N(C)Cc1ccccc1
737	Cc1nc(-c2ccccc2)sc1C(=O)Nc1c(C)nc2ccc(Cl)cn2c1=O
758	CCCc1cc(N2CCN(c3ccccn3)CC2)n2nc(C)c(-c3ccccc3)c2n1
745	O=C(CN1CCN(c2ccc3c(c2)OCCO3)C1=O)NCc1nc(-c2ccccc2)no1
934	COc1ccc(-c2noc(CN3C(=O)COc4ccc(C)cc43)n2)cc1OC
1130	CCCCN1C(=O)c2cc(S(=O)(=O)Nc3ccccc3C)ccc2Oc2cccnc21
895	COc1cc(NC(=O)N2CCC(n3c(C(F)(F)F)nc4cccnc43)CC2)cc(OC)c1
719	CCN1C(=O)COc2ccc(-c3csc(NC(C)=O)n3)cc21
663	O=C(Cn1nc(Cc2cccnc2)c2ccccc2c1=O)NCCC1=CCCCC1
902	CC(C)n1c(N2CCN(C(=O)CSc3ccccc3)CC2)cc(=O)n(C(C)C)c1=O
841	CCN(CC)C(=O)Cn1nc2cc(C)nc(-c3ccc(C(F)(F)F)cc3)n2c1=O
961	CCn1cc(-c2nc(CC(=O)Nc3ccc(F)c(F)c3)cs2)c2cccnc21
630	O=C(NCc1ccc(Br)cc1)c1ccc(=O)n(CCN2CCCC2)c1

RP-LC retention time [s]	SMILES
1060	Cc1cc(NC(=O)Cn2nc(N3CCCC3)c3ccccc3c2=O)ccc1Br
760	O=C(NCCOc1ccc2c(c1)OCO2)c1c(F)cccc1F
587	Cc1nc(N2CCOCC2)cc(N2CCN(C(=O)c3cnn(-c4ccccc4)n3)CC2)n1
684	Cc1ccc(F)c(-n2cc(C(=O)O)nn2)c1
639	CC(=O)N1c2ccc(S(=O)(=O)N3CCCCC3)cc2CC1C(=O)NCCN1CCCCCC1 (centres undefined)
626	CC(=O)N1c2ccc(S(=O)(=O)N3CCCC3)cc2CC1C(=O)NCCCN1CCCCC1 (centres undefined)
652	Cc1nnc(C2CCCN(C(=O)c3ccccc3Cl)C2)s1 (centres undefined)
677	Cc1cccc(-c2ncccc2CNS(=O)(=O)c2cccs2)c1
933	O=C1NCCCCCN(C(=O)CC2CCCCC2)[C@@H]2C[C@@H](C(=O)N3CCc4ccccc4C3)C[C@H]12
1210	CCc1ccccc1NS(=O)(=O)c1cc(-c2cc(C(F)(F)F)on2)sc1C
1020	Cc1nn(C)c2nc(OC(C)C(=O)NCc3ccccc3Cl)cc(C(F)(F)F)c12 (centres undefined)
654	CN1CCCn2nc(C3CCN(C(=O)CC(C)(C)C)CC3)cc2C1=O
718	CCNc1nc(NCC)nc(-n2cnc(SC)n2)n1
596	CCC1CCCCN1CCCNC(=O)CCc1cc2ccc(C)cc2[nH]c1=O (centres undefined)
691	CCNC(=O)c1ccc(-c2ccc3c(c2)CCN3C(C)=O)cc1
1110	COc1ccc(S(=O)(=O)N2CCCC(C(=O)Nc3cc(Cl)ccc3OC)C2)cc1Cl (centres undefined)
1040	Brc1ccc(OCc2nn3c(C4COc5ccccc5O4)nnc3s2)cc1 (centres undefined)
1230	CCN(C(=O)c1cccc(F)c1)c1nc(-c2ccccc2)cs1
815	COc1ccccc1NC(=O)c1c(NC(=O)C(C)C)sc2c1CCC2
568	COc1ncccc1CNC(=O)NCc1ccco1
879	COc1ccc2nc(C(=O)NCc3ccc(Br)cc3)cn2n1
725	CCC(C)NC(=O)Cn1ccn2nc(-c3ccc(F)cc3)c(CO)c2c1=O (centres undefined)

RP-LC retention time [s]	SMILES
861	O=C(Nc1cc(F)ccc1F)c1ccc(=O)n(Cc2cccc(C(F)(F)F)c2)c1
670	Cc1cccc(-c2nc3cnccn3c2NCCC(=O)NC2CCCC2)c1
709	O=C(NCC1CC1)c1ccc(NC(=O)C2CCC2)cc1N1CCOCC1
744	CC(C)CNC(=O)NCC1Cn2cccc2C(=O)N1Cc1ccccc1 (centres undefined)
1130	Cc1[nH]nc(-c2c(C)sc(C)c2S(=O)(=O)NC2CCCc3ccccc32)c1C (centres undefined)
615	COc1cccc(OC)c1OCC(O)CN1CCN(c2cc(Cl)ccc2C)CC1 (centres undefined)
624	CC(C)CCC(=O)N1CCN(c2nc(CN3CCOCC3)cs2)CC1
774	O=S(=O)(c1ccc(F)cc1)N1CCC(n2cnnc2-c2ccccc2)CC1
793	CCc1ccc(N2C[C@@]34C=C[C@@H](O3)[C@H](C(=O)OC)[C@@H]4C2=O)cc1
653	CCCNC(=O)c1ccc(S(N)(=O)=O)cc1
795	C[C@H]1CN(C(=O)c2cc(F)cc(F)c2)C[C@@H]1c1nc(-c2cccnc2)no1
836	COC(=O)c1cccc(NC(=O)N2C[C@@H]3C[C@H](NC(=O)c4ccccc4)[C@H]2C3)c1
698	Cc1cc(C)c2nc(C)cc(C(=O)NCc3ccco3)c2c1
765	Cn1c(=O)c2cc(C(=O)N3CCN(c4ccccc4F)CC3)sc2n(C)c1=O
1000	CCOC(=O)c1sc(NC(=O)c2cc(OC)ccc2OC)cc1C
820	CCOC(=O)c1c(C)[nH]c(C(=O)N2CCC(CC(=O)NCc3cccc(C)c3)CC2)c1C
836	Cc1nc2nc(-c3ccccc3)nn2c(C)c1CC(=O)N1CCCCC1C (centres undefined)
1090	O=C(NCc1ccco1)c1csc(N2CCN(c3ccc(Cl)cc3)CC2)n1
648	O=C(CSc1nnc(NC(=O)c2ccc(Br)o2)s1)NCC1CCCO1 (centres undefined)
804	c1cc(-c2noc(C3CCC3)n2)cc(N2CCOCC2)n1
788	CCCN(CC1CCOC1)C(=O)c1ccccc1Cl (centres undefined)
664	CC(C)Oc1ccc(C(=O)N[C@H](CNC(=O)CN(C)C)Cc2ccc(-c3cn4cccc([C@H](C)O)c4n3)cc2)cc1Cl

SMILES	RP-LC retention time [s]
O=C(NC1CC1)c1nc(C(=O)N2CCC3(CC2)OCCO3)cs1	649
